Results on 2 compounds are retold here after patent US11883505B2, “Anticancer drug-containing plant virus particles” (CASE WESTERN RESERVE UNIVERSITY, priority 2015, dated 2024).

One test relates to MDA-MB-231 xenografts. In words: Treatment of MDA-MB-231 xenografts in NCR nu/nu mice. Conditions: 1.0 mg/kg (normalized to platinum or TMV content), weekly intravenous bolus. It is filed as in vivo, mouse. As to the method: FIGS. 7A-C show treatment of MDA-MB-231 xenografts in an athymic mouse model. […] Tumor volumes were monitored daily, and total volume was normalized to initial tumor size at time of treatment. Each treatment group consists of 5 animals (n=5); *indicates p<0.05.
All animal studies were carried using IACUC-approved procedures. […] The dosage was normalized to platinum or TMV content.

The test system of test [1] is A2780/CP70 (ovarian cancer resistant to cisplatin). In words: MTT assay, ovarian cancer cells resistant to cisplatin. It is filed as cell-based, human. Conditions: ovarian cancer cells resistant to cisplatin treatment.
Protocol: (§1) The assay was performed as per manufacturer's recommendation; a BioTek Synergy HT multidetection microplate reader was used for read-out.
Test [2] relates to OV81.2 (ovarian cancer, primary patient cells). Briefly: MTT assay, primary patient ovarian cancer cells. It counts as cell-based, human. Conditions: primary patient cells OV81.2.
Protocol: as §1

`N.N.[Cl][Pt][Cl]` [cisplatin]: the “tumor growth / treatment effect” value in the test on MDA-MB-231 xenografts is “ineffective”.
For phenanthriplatin, the efficacy versus cisplatin result in test [1] is listed as “enhanced efficacy”; in test [2], “Enhanced efficacy”. Besides, in the test with MDA-MB-231 xenografts, the “tumor growth / treatment effect” value is “ineffective”.
